Experimental data: patent US20200246317A1, “METHODS OF TREATING DIABETIC NEUROPATHY WITH A THIAZOLINE ANTI-HYPERALGESIC AGENT” (CERSCI THERAPEUTICS, INC., priority 2019, published 2020)
Counter-ions that a name gives are not always drawn.

How the values were obtained:
OAT1 = molecular target: T1, OAT1 (Homo sapiens, UniProt Q4U2R8); assay: Inhibition of transporters, OAT1 (HEK293 cells); type: in vitro ADME
T1 construct: expressed in transfected cells; host or cells: HEK293 cells
T1 sequence (Q4U2R8 1-563): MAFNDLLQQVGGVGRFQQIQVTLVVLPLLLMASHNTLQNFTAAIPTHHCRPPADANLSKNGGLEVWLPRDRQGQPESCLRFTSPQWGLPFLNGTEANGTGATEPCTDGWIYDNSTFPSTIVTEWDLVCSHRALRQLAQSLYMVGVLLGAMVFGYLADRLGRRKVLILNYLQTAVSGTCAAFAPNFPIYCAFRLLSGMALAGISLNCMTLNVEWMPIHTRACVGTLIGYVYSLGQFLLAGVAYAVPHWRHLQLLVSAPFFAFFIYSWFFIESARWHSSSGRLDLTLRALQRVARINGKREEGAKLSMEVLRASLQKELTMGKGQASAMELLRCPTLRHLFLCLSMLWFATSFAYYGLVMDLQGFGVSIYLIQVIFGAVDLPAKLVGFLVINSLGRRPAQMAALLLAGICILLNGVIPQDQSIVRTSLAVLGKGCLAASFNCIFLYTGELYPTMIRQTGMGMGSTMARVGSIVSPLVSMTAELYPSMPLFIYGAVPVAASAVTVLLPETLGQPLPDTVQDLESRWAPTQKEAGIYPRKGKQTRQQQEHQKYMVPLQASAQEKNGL

[1] = Gravimetric Vapor Sorption (GVS); type: physicochemical
From the text: The sample is hygroscopic.

OATP1B3 = molecular target: T2, OATP1B3 (Homo sapiens, UniProt Q9NPD5); assay: Inhibition of transporters, OATP1B3 (HEK293 cells); type: in vitro ADME
T2 construct: expressed in transfected cells; host or cells: HEK293 cells
T2 sequence (Q9NPD5 1-702): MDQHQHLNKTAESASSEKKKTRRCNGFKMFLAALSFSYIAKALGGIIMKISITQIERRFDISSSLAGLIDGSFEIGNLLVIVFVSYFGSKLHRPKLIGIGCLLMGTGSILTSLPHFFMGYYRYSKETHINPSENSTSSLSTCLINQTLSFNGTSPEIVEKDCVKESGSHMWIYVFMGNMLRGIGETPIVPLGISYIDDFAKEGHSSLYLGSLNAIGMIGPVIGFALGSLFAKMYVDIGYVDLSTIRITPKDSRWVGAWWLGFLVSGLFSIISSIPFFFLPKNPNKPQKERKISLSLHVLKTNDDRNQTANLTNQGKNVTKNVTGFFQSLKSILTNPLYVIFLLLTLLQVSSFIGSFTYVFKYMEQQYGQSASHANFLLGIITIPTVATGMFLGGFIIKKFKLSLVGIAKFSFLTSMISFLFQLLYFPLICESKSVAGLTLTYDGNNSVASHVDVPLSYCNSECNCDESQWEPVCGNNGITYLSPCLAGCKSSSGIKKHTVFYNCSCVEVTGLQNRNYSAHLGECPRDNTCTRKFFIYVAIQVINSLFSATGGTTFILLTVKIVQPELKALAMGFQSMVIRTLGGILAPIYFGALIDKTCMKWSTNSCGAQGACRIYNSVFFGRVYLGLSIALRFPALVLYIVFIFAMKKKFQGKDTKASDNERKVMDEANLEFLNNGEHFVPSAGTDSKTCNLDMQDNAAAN

[2] = Rat brain distribution and pharmacokinetic study; type: in vivo
From the text: A rat brain distribution study performed in order to determine standard pharmacokinetic parameters and to assess the brain penetration properties of Compound 1 administered orally and intravenously.

Pharmacokinetics in dog = type: in vivo
Procedure: Similar conditions were used to validate a bioanalytical method in dog plasma also using 50 μL of plasma. In both assays, a deuterated (Compound 1-d4) internal standard was used.

[3] = tested on: methylglyoxal-induced diabetic neuropathy; assay: Rat model of diabetic neuropathy, methylglyoxal-induced; type: in vivo; conditions: methylglyoxal-induced (overview)
[4] = tested on: lactoperoxidase oxidation (mediated by peroxide); assay: Lactoperoxidase oxidation (mediated by peroxide); type: biochemical; conditions: physiological conditions (neutral pH)
Excretion in rats = type: in vivo, rat
[5] = Stability in hepatocytes, human; type: in vitro ADME
OAT3 = molecular target: T3, OAT3 (Homo sapiens, UniProt Q8TCC7); assay: Inhibition of transporters, OAT3 (HEK293 cells); type: in vitro ADME
T3 construct: expressed in transfected cells; host or cells: HEK293 cells
T3 sequence (Q8TCC7 1-542): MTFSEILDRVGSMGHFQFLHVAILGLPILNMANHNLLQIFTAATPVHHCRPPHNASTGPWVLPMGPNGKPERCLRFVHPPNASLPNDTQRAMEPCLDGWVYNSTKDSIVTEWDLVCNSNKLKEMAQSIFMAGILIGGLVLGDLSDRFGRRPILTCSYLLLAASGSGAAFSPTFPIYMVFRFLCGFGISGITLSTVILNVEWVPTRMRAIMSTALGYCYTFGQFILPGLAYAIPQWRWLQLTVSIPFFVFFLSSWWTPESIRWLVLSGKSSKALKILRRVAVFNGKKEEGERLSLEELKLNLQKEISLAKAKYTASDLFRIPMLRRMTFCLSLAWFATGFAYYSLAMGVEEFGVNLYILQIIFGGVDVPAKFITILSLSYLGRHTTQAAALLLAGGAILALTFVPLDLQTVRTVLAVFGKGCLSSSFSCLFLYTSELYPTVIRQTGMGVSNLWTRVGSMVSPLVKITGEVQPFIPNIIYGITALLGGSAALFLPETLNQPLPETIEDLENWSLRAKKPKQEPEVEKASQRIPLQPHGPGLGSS

[6] = tested on: STZ-induced mechanical allodynia; assay: Diabetic neuropathy model of FIG. 10 (STZ, mechanical hypersensitivity); type: in vivo, mice; conditions: STZ on day −7
Procedure: Streptozotocin (STZ) destroys insulin-producing cells and generates a diabetic phenotype in mice. Animals were dosed with STZ on day −7. By day 0, animals are hyperglycemic and hyperalgesic (day 0 BL).

[7] = Chemical-based assays of peroxynitrite (PN) oxidation (luminol); type: biochemical
[8] = Stability in hepatocytes, rat; type: in vitro ADME

In the case of CC1(C)SC(Nc2ccccc2O)=N[C@@H]1C(=O)O [Compound 1, (R)-2-(2-hydroxyphenylamino)-5,5-dimethyl-4,5-dihydrothiazole-4-carboxylic acid mono-hydrochloride], the “inhibition of OAT1 (in words)” value (OAT1) is reported as “does not inhibit”, the hygroscopicity [1] is reported as “hygroscopic” and the “inhibition of OATP1B3 (in words)” value (OATP1B3) is reported as “does not inhibit”. The “distribution to tissues and brain” value ([2]; overview) was “distributes to tissues but not to brain to an appreciable extent”, the “bioavailability after oral administration” value ([2]; rat) was “bioavailable” and the “elimination from the systemic circulation” value ([2]; rats) was “moderate rate”. For the same compound, the Oral bioavailability ([2]; rats, 30 mg/kg oral dose) was 111%, the oral absorption ([2]; rats, 30 mg/kg oral dose) was “rapidly and completely absorbed” and the peak plasma concentration ([2]; rats, 30 mg/kg oral dose) was 9 µg/mL. For the same compound, the terminal half-life ([2]; rats, 30 mg/kg oral dose) was 1.6 h, the “time to peak plasma concentration” value ([2]; rats, 30 mg/kg oral dose) was at most 1 h and the “bioavailability after oral administration” value (Pharmacokinetics in dog) was “bioavailable”. The effect on allodynia [3] was “alleviates allodynia”, the removal of peroxynitrite [4] was “catalytically remove peroxynitrite” and the “form excreted into urine and feces” value (Excretion in rats) was “primarily as a sulfate conjugate”. The stability in hepatocytes [5] was “stable”, the “inhibition of OAT3 (in words)” value (OAT3) was “weakly inhibits” and the “effect on STZ-induced mechanical allodynia” value [6] was “blocks STZ-induced mechanical allodynia”. The “PN-mediated oxidation of small-molecule organic substrates such as luminol” value [7] was “inhibits PN-mediated oxidation” and the stability in hepatocytes [8] was “stable”.
